In patent US20260184663A1, “INDENE COMPOUNDS, PHARMACEUTICAL COMPOSITIONS THEREOF, AND THEIR THERAPEUTIC APPLICATIONS” (NucMito Pharmaceuticals co. Ltd., priority 2022, published 2026):

What was measured:
Assay type in all cases: cell-based
[1] = test system: B16F10 (malignant melanoma); assay: Antiproliferative activity (CCK-8 cell viability), B16F10; settings: Mus musculus, 72 h, read-out: Antiproliferative activity in cancerous cells, B16F10 (inhibition of cell growth); for inhibition at 3.3 µM: B16-F10, Compound concentration: 3.3 μM; for inhibition at 10 µM: B16-F10, Compound concentration: 10 μM
Method in brief: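 Cell growth inhibition was measured in B16F10 malignant melanoma cells with a Cell Counting Kit-8 viability assay. Cells were maintained in DMEM plus 10% fetal bovine serum, seeded at 2,000-5,000 cells/well in 96-well plates, and treated for 72 h at 37° C. Viability was expressed relative to DMSO-treated vehicle control wells.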

[2] = test system: A431 (epidermoid carcinoma); assay: Antiproliferative activity (CCK-8 cell viability), A431; settings: Homo sapiens, 72 h, read-out: Antiproliferative activity in cancerous cells, A431 (inhibition of cell growth); for inhibition at 3.3 µM: A-431, Compound concentration: 3.3 μM; for inhibition at 10 µM: A-431, Compound concentration: 10 μM
Method in brief: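 This growth inhibition assay used A431 cells maintained in Dulbecco's modified Eagle's medium plus 10% fetal bovine serum. Cells were seeded in 96-well plates, treated with compound for 72 h at 37° C., and then given 10 μL CCK-8 solution. After a further 4 h, absorbance was read at 450 nm.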

[3] = test system: alpha-smooth muscle actin (α-SMA); assay: Inhibition of TGF-β induced expression of alpha-smooth muscle actin (α-SMA) in CFSC cells (western blot); settings: compound at 10 μM, TGF-β (10 ng/mL), 24 hours, band intensity vs TGF-β only
Method in brief: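 Values are percent reduction of α-SMA band intensity relative to cells given TGF-β alone, quantified by Western blot densitometry with β-actin probed. Compound was applied at 10 μM alongside 10 ng/mL TGF-β to serum-free CFSC cultures for 24 h at 37 °C.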

HeLa (cervical cancer) = assay: Antiproliferative activity (CCK-8 cell viability), HeLa; settings: Homo sapiens, 72 h, read-out: Antiproliferative activity in cancerous cells, HELA (inhibition of cell growth); for inhibition at 3.3 µM: Compound concentration: 3.3 μM; for inhibition at 10 µM: Compound concentration: 10 μM
Method in brief: (§1)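 Growth inhibition graded in bands from percent viability against DMSO vehicle, read as CCK-8 absorbance at 450 nm. Compound tested at 3.3, 10 or 30 μM for 72 h, 37 °C; media contained 10% FBS: DMEM for HepG2/SW480, MEM for HeLa, F-12K for A549.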

HepG2 (liver cancer) = assay: Antiproliferative activity (CCK-8 cell viability), HepG2; settings: Homo sapiens, 72 h, read-out: Antiproliferative activity in cancerous cells, HepG2 (inhibition of cell growth); for inhibition at 3.3 µM: Compound concentration: 3.3 μM; for inhibition at 10 µM: Compound concentration: 10 μM
Method in brief: as §1

SW480 (colon cancer) = assay: Antiproliferative activity (CCK-8 cell viability), SW480; settings: Homo sapiens, 72 h, read-out: Antiproliferative activity in cancerous cells, SW480 (inhibition of cell growth); for inhibition at 3.3 µM: Compound concentration: 3.3 μM; for inhibition at 10 µM: Compound concentration: 10 μM
Method in brief: as §1

[4] = test system: MDA-MB-231 (breast cancer); assay: Antiproliferative activity (CCK-8 cell viability), MDA-MB-231; settings: Homo sapiens, 72 h, read-out: Antiproliferative activity in cancerous cells, MDA-MB-231 (inhibition of cell growth); for inhibition at 3.3 µM: Compound concentration: 3.3 μM; for inhibition at 10 µM: Compound concentration: 10 μM
Method in brief: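 Growth inhibition of human MDA-MB-231 breast cancer cells was assessed with a Cell Counting Kit-8. Cells cultured in DMEM plus 10% FBS were seeded at 2,000-5,000 cells/well, treated after attachment, and kept 72 h at 37° C. CCK-8 solution (10 μL) was added for 4 h, and absorbance at 450 nm was compared with DMSO-treated controls.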

[5] = test system: A549 (lung adenocarcinoma); assay: Antiproliferative activity (CCK-8 cell viability), A549; settings: Homo sapiens, 72 h, read-out: Antiproliferative activity in cancerous cells, A549 (inhibition of cell growth); for inhibition at 3.3 µM: Compound concentration: 3.3 μM; for inhibition at 10 µM: Compound concentration: 10 μM
Method in brief: as §1

Row | SMILES | inhibition at 3.3 µM [1] [%] | inhibition at 10 µM [1] [%] | inhibition at 3.3 µM [2] [%] | inhibition at 10 µM [2] [%] | inhibition at 10 µM [3] [%] | inhibition at 3.3 µM (HeLa (cervical cancer)) [%] | inhibition at 10 µM (HeLa (cervical cancer)) [%] | inhibition at 3.3 µM (HepG2 (liver cancer)) [%] | inhibition at 10 µM (HepG2 (liver cancer)) [%] | inhibition at 3.3 µM (SW480 (colon cancer)) [%] | inhibition at 10 µM (SW480 (colon cancer)) [%] | inhibition at 3.3 µM [4] [%] | inhibition at 10 µM [4] [%] | inhibition at 3.3 µM [5] [%] | inhibition at 10 µM [5] [%] | further results
1 | CC1=C(CC(=O)O)c2c(F)ccc(F)c2/C1=C/c1cccc(C(F)(F)F)c1 [E13, (E)-2-(4,7-Difluoro-2-methyl-1-(3-(trifluoromethyl)benzylidene)-1H-inden-3-yl)-acetic acid] | < 30 | ≥ 50 | < 30 | 30 to 50 | < 30 | 30 to 50 | 30 to 50 | < 30 | < 30 | < 30 | < 30 | < 30 | < 30 | < 30 | ≥ 50 | inhibition at 30 µM ([1]; B16-F10, Compound concentration: 30 μM): ≥ 50%; inhibition at 30 µM ([2]; A-431, Compound concentration: 30 μM): ≥ 50%; inhibition at 30 µM (HeLa (cervical cancer); Compound concentration: 30 μM): ≥ 50%; inhibition at 30 µM (HepG2 (liver cancer); Compound concentration: 30 μM): < 30%; inhibition at 30 µM (SW480 (colon cancer); Compound concentration: 30 μM): < 30%; inhibition at 30 µM ([4]; Compound concentration: 30 μM): < 30%; inhibition at 30 µM ([5]; Compound concentration: 30 μM): ≥ 50%
2 | O=C(O)CC1=C(Cc2ccc(Oc3ccc(F)cc3)cc2)/C(=C/c2ccc(C(F)(F)F)cc2)c2ccc(F)cc21 [A108, (Z)-2-(5-Fluoro-2-(4-(4-fluorophenoxy)benzyl)-1-(4-(trifluoromethyl)-benzylidene)-1H-inden-3-yl)acetic acid] | ≥ 50 | ≥ 50 | ≥ 50 | ≥ 50 | > 80 | < 30 | ≥ 50 | < 30 | < 30 | < 30 | ≥ 50 | ≥ 50 | ≥ 50 | ≥ 50 | ≥ 50 | 
3 | O=C(O)CC1=C(CC2CCCC2)/C(=C/c2cccc(Oc3ccccc3)c2)c2ccc(F)cc21 [C20, (Z)-2-(2-(Cyclopentylmethyl)-5-fluoro-1-(3-phenoxybenzylidene)-1H-inden-3-yl)acetic acid] | ≥ 50 | ≥ 50 | ≥ 50 | ≥ 50 | > 80 | 30 to 50 | ≥ 50 | < 30 | < 30 | ≥ 50 | ≥ 50 | 30 to 50 | ≥ 50 | 30 to 50 | ≥ 50 | 
4 | CC1=C(CC(=O)O)c2cc(F)cc(F)c2/C1=C\c1cccc(COc2ccccc2)c1 [B7, (Z)-2-(5,7-Difluoro-2-methyl-1-(3-(phenoxymethyl)benzylidene)-1H-inden-3-yl)-acetic acid] | < 30 | 30 to 50 | 30 to 50 | ≥ 50 | > 80 | ≥ 50 | 30 to 50 | 30 to 50 | 30 to 50 | ≥ 50 | ≥ 50 | ≥ 50 | ≥ 50 | < 30 | 30 to 50 | 
5 | CC1=C(CC(=O)O)c2cc(F)ccc2/C1=C\c1ccc(CN(Cc2ccccn2)c2ccccc2)cc1 [B16, (Z)-2-(5-Fluoro-2-methyl-1-(4-((phenyl(pyridin-2-ylmethyl)amino)methyl)-benzylidene)-1H-inden-3-yl)acetic acid] | 30 to 50 | ≥ 50 | < 30 | ≥ 50 | > 80 | 30 to 50 | ≥ 50 | < 30 | ≥ 50 | < 30 | < 30 | ≥ 50 | ≥ 50 | ≥ 50 | ≥ 50 | 
